Measured values: publication PMC2990587, “Central nervous system penetration and enhancement of temozolomide activity in childhood medulloblastoma models by poly(ADP-ribose) polymerase inhibitor AG-014699” (British Journal of Cancer, 2010)
“Also recorded” adds a separate entry of the source.

Assays:
D425Med cells = assay: XTT growth inhibition, D425Med; assay type: cell-based, human
Experimental: (§1) Cell growth inhibition was estimated in exponentially growing D425Med, D283Med and D384Med cells in 96-well plates. Seeding densities of 1 × 10^3, 3 × 10^3 and 3 × 10^3 cells, respectively, ensured exponential growth for the duration of the experiment. At 24 h (D384Med) or 48 h (D283Med and D425Med) after seeding, cells were exposed to varying concentrations of temozolomide, as described in the Results, in the presence or absence of 0.4 μM AG-014699, a concentration previously shown to enhance temozolomide cytotoxicity in adult tumour cell lines ([Thomas et al, 2007]). After 3 days (D425Med and D384Med) or 5 days (D283Med) of culture (equivalent to approximately three cell divisions), the cell viability was quantified using an XTT cell proliferation kit assay (Roche, Mannheim, Germany), according to the manufacturer's instructions. Cell growth was expressed as a percentage in relation to DMSO or 0.4 μM AG-014699-alone controls. The concentration of temozolomide, alone or in combination with AG-014699, that inhibited growth by 50% (GI50) was calculated from computer-generated curves (GraphPad Software, San Diego, CA, USA). The potentiation factor50 (PF50) is defined as the ratio of […]. All data were from at least three independent experiments.

D283Med cells = assay: XTT growth inhibition, D283Med; assay type: cell-based, human
Experimental: as §1

D425Med xenografts = assay: Tumour growth inhibition in vivo, D425Med xenografts; set-up: species or system mouse
Description: (§2) All of the in vivo experiments were reviewed and approved by the relevant institutional animal welfare committees, and performed according to national law. Female athymic nude mice (CD1 nu/nu; Charles River, Margate, UK) used for anti-tumour studies were maintained and handled in isolators under specific pathogen-free conditions. […], […] and […] (1 × 10^7 exponentially growing cells per mouse, harvested and implanted in growth media) xenografts were established by sub-cutaneous implantation into CD-1 nude mice. […] Treatment was initiated when sufficient number of mice had established tumours to allow randomisation into treatment groups: day 17 for […], day 26 for […] and day 32 for […]. […] For drug combinations, AG-014699 was administered immediately after administering temozolomide. […] Tumour growth delay (TGD) is defined as the time to RTV4 in drug-treated mice compared with the time to RTV4 in control (vehicle alone) mice. Median tumour volume is shown, rather than the mean, as this is generally accepted as the most statistically reliable representation of the average growth rate of tumours in a small group of mice, if a normal distribution of tumour volumes cannot be assumed. Tumour growth delay was calculated as: median time to RTV4 in treated group-median time to RTV4 in control group.

PARP-1 = biological target: T1, PARP-1 (Mus musculus, UniProt P11103); assay: PARP activity in brain homogenates after AG-014699 dosing; assay type: in vivo
T1 construct: from tissue; host or cells: brain of CD-1 nude mice
T1 sequence (P11103 whole entry): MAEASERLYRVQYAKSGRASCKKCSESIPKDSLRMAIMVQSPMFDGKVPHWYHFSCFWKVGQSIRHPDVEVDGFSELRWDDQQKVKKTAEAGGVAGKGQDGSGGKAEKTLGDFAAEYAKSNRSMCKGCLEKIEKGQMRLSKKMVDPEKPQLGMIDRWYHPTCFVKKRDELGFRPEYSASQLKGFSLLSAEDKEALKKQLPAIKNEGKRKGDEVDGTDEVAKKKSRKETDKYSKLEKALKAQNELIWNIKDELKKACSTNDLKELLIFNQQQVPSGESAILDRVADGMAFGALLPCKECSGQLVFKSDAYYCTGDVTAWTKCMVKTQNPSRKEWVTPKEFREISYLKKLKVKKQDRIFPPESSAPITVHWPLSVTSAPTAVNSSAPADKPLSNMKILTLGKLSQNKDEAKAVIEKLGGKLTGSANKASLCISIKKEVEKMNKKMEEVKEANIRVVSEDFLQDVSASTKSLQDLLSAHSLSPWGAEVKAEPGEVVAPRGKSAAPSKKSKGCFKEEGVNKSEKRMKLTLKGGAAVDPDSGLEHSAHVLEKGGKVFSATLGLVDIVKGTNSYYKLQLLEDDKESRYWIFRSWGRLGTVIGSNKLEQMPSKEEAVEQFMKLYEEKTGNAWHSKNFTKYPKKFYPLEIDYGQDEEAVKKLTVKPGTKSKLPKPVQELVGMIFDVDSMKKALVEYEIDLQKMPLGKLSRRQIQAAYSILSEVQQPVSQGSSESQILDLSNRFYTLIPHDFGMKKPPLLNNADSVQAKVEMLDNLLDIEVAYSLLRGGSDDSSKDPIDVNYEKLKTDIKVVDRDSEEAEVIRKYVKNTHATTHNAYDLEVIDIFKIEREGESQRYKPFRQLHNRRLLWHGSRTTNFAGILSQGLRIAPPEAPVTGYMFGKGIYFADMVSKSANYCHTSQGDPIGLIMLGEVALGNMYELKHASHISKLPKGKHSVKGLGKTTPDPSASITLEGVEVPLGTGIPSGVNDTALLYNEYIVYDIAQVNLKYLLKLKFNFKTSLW
Experimental: One or four daily doses of PARP inhibitor AG-014699 (1 mg kg^−1 intraperitoneally (i.p.)) were given to CD-1 nude mice bearing established D283Med xenografts. At 0.5, 2, 6 and 24 h after the initial or fourth daily dose of AG-014699, three animals per time point were bled by cardiac puncture under general anaesthesia, and then killed. Plasma was separated from the blood samples using standard methods and stored at −80°C. The brains and tumours were removed, snap frozen in liquid nitrogen and stored at −80°C before analysis. Blood, tumour and brain tissue were removed from three untreated control animals and processed in the same way.
PARP activity was determined in homogenates of subcutaneous D283Med xenografts and brain tissue (see above). Maximally stimulated PARP activity was measured in replicate samples (n⩾3) of a 1 : 1000 dilution of the homogenate as described for permeabilised D283Med cells (see above). Data were calculated as pmol PAR per mg protein by reference to the PAR standard curve and protein content of the sample and expressed as a percentage of the corresponding tissue from the saline-treated control animals. The mean PARP activity in xenograft and brain samples taken at each time point was expressed as a percentage of the mean PARP activity of control xenografts from untreated mice (n=3).

D384Med xenografts = assay: Tumour growth inhibition in vivo, D384Med xenografts; set-up: species or system mouse
Description: as §2

[1] = Toxicity (body weight loss) in tumour-bearing mice; assay type: in vivo, mouse
Experimental: CD-1 nude mice bearing palpable, established subcutaneous D425Med, D283Med and D384Med xenografts were treated with normal saline (control animals), temozolomide (68 mg kg^−1 per os (p.o.)) or AG-014699 (1 mg kg^−1 i.p.) alone or in combination, daily for 5 days (five mice per group). For drug combinations, AG-014699 was administered immediately after administering temozolomide. Tumour volumes, determined from two-dimensional calliper measurements and the equation a^2 × b/2 (where a is the […] of the tumour), were monitored for the experimental period (up to 100 days), and are presented for each group of mice as median relative tumour volume (RTV) values. Relative tumour volume 1 is the tumour volume on the initial day of treatment (day 0), and RTV4 is the tumour volume four times that on the initial day of treatment. Tumour growth delay (TGD) is defined as the time to RTV4 in drug-treated mice compared with the time to RTV4 in control (vehicle alone) mice. Median tumour volume is shown, rather than the mean, as this is generally accepted as the most statistically reliable representation of the average growth rate of tumours in a small group of mice, if a normal distribution of tumour volumes cannot be assumed. Tumour growth delay was calculated as: median time to RTV4 in treated group−median time to RTV4 in control group. Percentage enhancement was calculated as 100 × (TGD TMZ+AG-014699/TGD TMZ alone)−100 ([Calabrese et al, 2004]).

D384Med cells = assay: XTT growth inhibition, D384Med; assay type: cell-based, human
Experimental: as §1

For `CNCc1ccc(-c2[nH]c3cc(F)cc4c3c2CCNC4=O)cc1` [AG-014699], the “Sensitisation to temozolomide by AG-014699” value (“Sensitisation to temozolomide” for short) (D425Med cells; D425Med (MGMT-deficient), 0.4 μM AG-014699) was “not sensitised; also recorded: no sensitisation; also recorded: did not enhance temozolomide sensitivity”, the “Growth inhibition by AG-014699 alone” value (D425Med cells; D425Med, 0.4 μM, data not shown) was “not growth inhibitory” and the PF50 (D425Med cells; D425Med, potentiation of temozolomide by 0.4 μM AG-014699) was 0.7±0.4. The “Sensitisation to temozolomide” value (D283Med cells; D283Med (MMR-defective), 0.4 μM AG-014699) was 20 fold, the “Growth inhibition by AG-014699 alone” value (D283Med cells; D283Med, 0.4 μM, data not shown) was “not growth inhibitory” and the PF50 (D283Med cells; D283Med, potentiation of temozolomide by 0.4 μM AG-014699) was 19±4.7. For the same compound, the “Median nadir body weight (% starting weight)” value (D425Med xenografts; D425Med-bearing mice, daily x5, TMZ 68 mg kg−1 p.o., AG-014699 1 mg kg−1 i.p.) was 98 % starting weight, the “Median time to RTV4” value (D425Med xenografts; D425Med, daily x5, TMZ 68 mg kg−1 p.o., AG-014699 1 mg kg−1 i.p.) was 15.5 days and the Complete regressions (D425Med xenografts; D425Med, mice with regression/group, sustained for 100 days) was 0/5. The “PARP activity in brain” value (PARP-1; 24 h after fourth daily dose 1 mg kg−1 i.p.) was “near-normal activity”, the “Reduction of PARP activity in brain” value (PARP-1; 24 h after single dose 1 mg kg−1 i.p.) was “approximately 40%” and the “Reduction of PARP activity in brain tissue” value (PARP-1; abstract, time not stated) was no less than 75%. For the same compound, the “Reduction of PARP activity in brain” value (PARP-1; first 2 h after single dose 1 mg kg−1 i.p.) was “around 75%”, the “Median nadir body weight (% starting weight)” value (D384Med xenografts; D384Med-bearing mice, daily x5, TMZ 68 mg kg−1 p.o., AG-014699 1 mg kg−1 i.p.) was 96 % starting weight and the “Median time to RTV4” value (D384Med xenografts; D384Med, daily x5, TMZ 68 mg kg−1 p.o., AG-014699 1 mg kg−1 i.p.) was 20 days. For the same compound, the Complete regressions (D384Med xenografts; D384Med, mice with regression/group, transient) was 0/5, the Tumour growth delay (D384Med xenografts; D384Med, versus control time to RTV4) was 4 days and the “Toxicity of AG-014699 alone” value ([1]; 1 mg kg−1 i.p. daily five times) was “not toxic; also recorded: did not cause any marked toxicity”. The Body weight loss ([1]; daily x5, TMZ 68 mg kg−1 p.o., AG-014699 1 mg kg−1 i.p.) was 1±1%, the “Sensitisation to temozolomide” value (D384Med cells; D384Med (MGMT+ MMR+), 0.4 μM AG-014699) was greater than 3 fold and the “Growth inhibition by AG-014699 alone” value (D384Med cells; D384Med, 0.4 μM, data not shown) was “not growth inhibitory”. It also gave a PF50 (D384Med cells; D384Med, potentiation of temozolomide by 0.4 μM AG-014699) of 3.8±1.
